Read-outs that look alike come from different tables or passages of the source.
Columns and labels:
[1] = type: in vivo
MC 13/C mammary tumor = assay: antitumor activity on subcutaneously transplanted mammary tumor in mice (study BCM-1428)
Experimental: A product is considered to be active if log10 killed cells is greater than or equal to 0.7. A product is considered to be very active if the log10 killed cells is greater than 2.8.
30 to 60 mg of an MC 13/C mammary tumor fragment are transplanted bilaterally, subcutaneously, into the animals subjected to the experiment, generally mice, on day 0. The animals bearing the tumors are randomized before being subjected to the various treatments and controls. In the case of treatment of advanced tumors, the tumors are left to develop until the desired size, the animals having insufficiently developed tumors being eliminated. The animals selected are divided up randomly so as to undergo the treatments and the controls. […] The chemotherapy generally begins from 3 to 22 days after the tumor transplant, according to the type of tumor, and the animals are observed every day. The various groups of animals are weighed three or four times a week until the maximum weight loss is obtained, and then the groups are weighed at least once a week until the end of the trial.
The tumors are measured two or three times a week until the tumor reaches approximately 2 g or until the animal's death if the latter occurs before the tumor reaches 2 g. The animals are autopsied when they are sacrificed.
The antitumor activity is determined as a function of the various parameters recorded.
0.2 ml per mouse is prepared, according to the usual technique, for intravenous administration, from a commercial solution of 5 cm^3 containing 250 mg of 5 FU to be diluted with 5% glucose in water.
These solutions are administered simultaneously, after suitable dilution, by infusion.

[2] = sc VEGF-Trap 2.5 mg/kg/day (total 15), days 4,7,11,14,18,21
[3] = sc VEGF-Trap 10 mg/kg/day (total 60), days 4,7,11,14,18,21
[4] = sc VEGF-Trap 25 mg/kg/day (total 150), days 4,7,11,14,18,21
[5] = sc VEGF-Trap 40 mg/kg/day (total 240), days 4,7,11,14,18,21
[6] = iv 5-FU 34.6 mg/kg/day (total 103.8), days 4,11,18
[7] = iv 5-FU 55.8 mg/kg/day (total 167.4), days 4,11,18
[8] = iv 5-FU 90 mg/kg/day (total 270), days 4,11,18
[9] = iv 5-FU 145 mg/kg/day (total 435), days 4,11,18

In the case of “VEGF-Trap: fusion protein: VEGFR1 signal sequence, Ig domain D2 of VEGFR1, Ig domain D3 of VEGFR2, Fc domain of IgG1”, the “% weight loss at the lowest point” value [1, 2] is reported as 0.9%, the “Death due to the treatment” value [1, 2] is reported as 0/5 and the “% weight loss at the lowest point” value [1, 3] is reported as 1.1%. The “Death due to the treatment” value [1, 3] was 0/5, the “% weight loss at the lowest point” value [1, 4] was 1.1% and the “Death due to the treatment” value [1, 4] was 0/5. The “% weight loss at the lowest point” value [1, 5] was 2.3%, the “Death due to the treatment” value [1, 5] was 0/5 and the “% T/C (inhibition of tumor growth at day 24)” value (MC 13/C mammary tumor; [2]) was 32%. For the same compound, the “T-C days (delay of tumor growth)” value (MC 13/C mammary tumor; [2]) was 5.2 days, the “lck (log cells killed)” value (MC 13/C mammary tumor; [2]) was 0.6 and the “% T/C (inhibition of tumor growth at day 24)” value (MC 13/C mammary tumor; [3]) was 9%. For the same compound, the “T-C days (delay of tumor growth)” value (MC 13/C mammary tumor; [3]) was 12.1 days, the “lck (log cells killed)” value (MC 13/C mammary tumor; [3]) was 1.3 and the “% T/C (inhibition of tumor growth at day 24)” value (MC 13/C mammary tumor; [4]) was 8%. For the same compound, the “T-C days (delay of tumor growth)” value (MC 13/C mammary tumor; [4]) was 13.9 days, the “lck (log cells killed)” value (MC 13/C mammary tumor; [4]) was 1.5 and the “% T/C (inhibition of tumor growth at day 24)” value (MC 13/C mammary tumor; [5]) was 4%. For the same compound, the “T-C days (delay of tumor growth)” value (MC 13/C mammary tumor; [5]) was 12.7 days and the “lck (log cells killed)” value (MC 13/C mammary tumor; [5]) was 1.4.

For `O=c1[nH]cc(F)c(=O)[nH]1` [5-FU, 5-fluorouracil, reference compound], the “% weight loss at the lowest point” value [1, 6] was “+2.3%”, the “Death due to the treatment” value [1, 6] was 0/5 and the “% weight loss at the lowest point” value [1, 7] was 1.1%. The “Death due to the treatment” value [1, 7] was 0/5, the “% weight loss at the lowest point” value [1, 8] was 4.8% and the “Death due to the treatment” value [1, 8] was 0/5. The “% weight loss at the lowest point” value [1, 9] was 8.7%, the “Death due to the treatment” value [1, 9] was 1/5 and the “% T/C (inhibition of tumor growth at day 24)” value (MC 13/C mammary tumor; [6]) was 34%. The “T-C days (delay of tumor growth)” value (MC 13/C mammary tumor; [6]) was 4.6 days, the “lck (log cells killed)” value (MC 13/C mammary tumor; [6]) was 0.5 and the “% T/C (inhibition of tumor growth at day 24)” value (MC 13/C mammary tumor; [7]) was 12%. The “T-C days (delay of tumor growth)” value (MC 13/C mammary tumor; [7]) was 7.8 days, the “lck (log cells killed)” value (MC 13/C mammary tumor; [7]) was 0.8 and the “% T/C (inhibition of tumor growth at day 24)” value (MC 13/C mammary tumor; [8]) was 0%. The “T-C days (delay of tumor growth)” value (MC 13/C mammary tumor; [8]) was 12.5 days, the “lck (log cells killed)” value (MC 13/C mammary tumor; [8]) was 1.3 and the “% T/C (inhibition of tumor growth at day 24)” value (MC 13/C mammary tumor; [9]) was “Toxic”.
